{"source": "patent US10035791B2", "about": "“Bicyclic compound and pharmaceutical composition thereof for treating stroke and use thereof” (China Medical University, priority 2016, dated 2018)", "key": {"[1]": {"test_system": "primary cortical cultures (PCCs)", "experiment": "Lactate dehydrogenase (LDH) release rate analysis, H2O2-treated PCCs", "type": "cell-based, C57BL/6 mice", "description": "H2O2 can cause an oxidative damage to cells and a destruction of the cell membrane, and consequently the LDH is released into medium. For that reason, the lower rate of the LDH released into the culture medium is represented the fewer damaged cells and better cell protection effect of sample.\nTest cells are primary cortical cultures (PCCs) in this example. The PCCs are prepared from cerebral cortexes of gestation day 17 embryos from C57BL/6 mice as described previously (Cell Death Differ 2008; 15: 143-151). The PCCs are maintained under serum-free conditions in neurobasal medium (Invitrogen), supplemented with B-27 supplement (2%; invitrogen), glutamine (0.5 mM; Sigma Aldrich), glutamate ([…]; Sigma Aldrich), penicillin (100 U/ml) and streptomycin ([…]; Invitrogen). At 4 days in vitro, half of the medium is removed and replaced with fresh medium without glutamate. The cultures are maintained in a humidified incubator at 37° C. with 5% CO2. At 7 days in vitro, the PCCs are used for experimentation.\nThe PCCs are seeded in a 24-well plate and are allowed to stand for 20 minutes. […] The PCCs are maintained at 37° C. in a humidified atmosphere of 5% CO2 for 24 hours. After incubation, the culture medium is collected and washed twice with phosphate buffered saline (PBS), and then are analyzed the LDH activity in the culture medium by using LDH Cytotoxicity Detection Kit (TaKaRa Bio Laboratories, Japan) to calculate the percentage cytotoxicity, which is represented the situation of cells damage, of the PCCs. The lower percentage cytotoxicity presents the lower LDH activity detected and less severe of cells damages, which indicates the better cell protection effect of the sample. The LDH activity is measured by a colorimetry. After a reaction between enzyme and particular substrate, an absorbance of the reaction solution and the LDH activity is linearly correlated. The LDH activity (U/10^−3 L) is calculated by a reduced optical density slope at a wavelength of 340 nm within three minutes. A lactate dehydrogenase activity unit is defined as a catalytic consumption of […] NADH per minute."}, "[2]": {"test_system": "ischemic rats", "experiment": "Locomotor activity test", "type": "in vivo, Sprague-Dawley (SD) rats", "settings": "1 mg/kg, vs control group, FIGS. 19B to 19D", "source_text": "The ischemic rats are induced by an ischemia-reperfusion model to simulate transient focal cerebral ischemia in rats. Test animals are male Sprague-Dawley (SD) rats weighing 250-300 g. The rats are anesthetized with chloral hydrate (0.4 g/kg IP) and subjected to cerebral ischemia. The ischemia-reperfusion model is induced by ligations of bilateral common carotid arteries (CCAs) and a right middle cerebral artery (MCA). The bilateral CCAs are clamped with non-traumatic arterial clips, and the right MCA is ligated with an 10-0 nylon suture. After 90 minutes ischemia, the suture on the MCA and the arterial clips on CCAs are removed to allow reperfusion. Core body temperature is monitored with a thermistor probe (Hewlett-Packard Model 21090A probe, Hewlett-Packard Company, Andover, Mass.), and maintained at 37° C. with a heating pad during anesthesia. […]\nThe locomotor activity test is measured for about 2 hours using VersaMax Animal Activity Monitoring System (Accuscan Instruments), which contains 16 horizontal infrared sensors and 8 vertical infrared sensors. The vertical sensors are situated 10 cm above the chamber floor and the locomotor activity is quantified by a number of a beam broken by the rat's movement in the chamber. Three vertical-movement parameters are measured: (i) vertical activity (ii) vertical time (iii) number of vertical movements by the manufacturer's instruction."}, "[3]": {"test_system": "NSCs", "experiment": "Proliferation marker expressions (BrdU, ki-67) of the NSCs, immunofluorescence staining", "type": "cell-based, mice", "settings": "0.1, 1, 10 μM for 16 hours, especially 1 μM", "description": "To prepare the NSCs, after removal of meninges, subventricular zones (SVZ) of lateral ventricles from adult mice brain (4 week-of-age) are aseptically isolated and dissociated as previously described (J Cell Sci 2006; 119, 4467-4474). All steps are operated under sterile conditions. Then, neurosphere culture are prepared in neurobasal (NB) medium (Gibco BRL) supplemented with 2% of B27 (Gibco BRL), 2 mM of L-glutamine (PAN Biotech), 100 U/ml of penicillin/[…] of streptomycin (Gibco BRL). For maintenance and expansion of the cultures, the NB/B27 is further supplemented with 2 μg/mL of heparin (Sigma), 20 ng/mL of FGF-2 (R&D Systems) and 20 ng/mL of EGF (R&D Systems). […] For clonal/low density cultures, primary neurospheres grown at high density are dissociated into a single cell suspension and reseeded into 96-well plates at 100 cells per ml of media and the number of newly formed neurospheres is counted after 7 days. In addition, the Bmi-1 expressions, SOX2 expressions, Nestin expressions, Musashi-1 expressions, BrdU expressions and ki-67 expressions of the newly formed neurospheres are determined by the immunofluorescence staining.\nTo measure the effect of the administration of the Compound 1 on proliferation marker expressions of the NSCs, the NSCs treated with the Compound 1 are detected by the immunofluorescence staining. […]"}}, "note": "“Also recorded” adds a separate entry of the source.", "data": [{"compound": "COC(=O)C1=CO[C@@H](O)[C@@H]2C(COC(=O)[C@@H](N)Cc3ccccc3)=CC[C@H]12", "note": "[Compound 1]", "values": [{"measurement": "LDH release rate of the PCCs treated with H2O2", "setting": "[1]; compound 0.1 μM, FIG. 1G", "result": 30, "unit": "%"}, {"measurement": "LDH release rate of the PCCs treated with H2O2", "setting": "[1]; compound 100 μM, 10^-4 mol/L H2O2, 24 hours, FIG. 1F", "result": "lower LDH release rate; also recorded: reduces most LDH release rate"}, {"measurement": "concentration at which the LDH release rate of the PCCs is reduced most", "setting": "[1]; tested 0.1, 1, 10 and 100 μM, FIG. 1G", "result": 100, "unit": "µM"}, {"measurement": "locomotor activity (vertical activity, vertical time, number of vertical movements)", "setting": "[2]", "result": "significant improvement"}, {"measurement": "proportion of the BrdU+ cells in the neurosphere culture", "setting": "[3]; FIG. 12B", "result": "increases the proportion"}, {"measurement": "proportion of the ki-67+ cells in the neurosphere culture", "setting": "[3]; FIG. 12C", "result": "increases the proportion"}]}]}
